In patent publication US20200054633A1 (priority 2017, published 2020):
Read-outs that look alike come from different tables or passages of the source.

Assays:
Influenza A = assay type: in vivo, human; conditions: for Acceleration Factor, time to Influenza A negativity (TCID50), treatment versus placebo: accelerated failure time model, Full Analysis Set
[1] = Clinical study: treatment-emergent laboratory toxicities, ECG, vital signs; assay type: in vivo, human; conditions: for Worst treatment-emergent toxicity: Glucose hyperglycemia Grade 3 / Worst treatment-emergent toxicity: ALT increase by factor Grade 3 / Worst treatment-emergent toxicity: ALT increase by factor Grade 4 / Worst treatment-emergent toxicity: AST increase by factor Grade 4 / Worst treatment-emergent toxicity: CPK Grade 3 / Worst treatment-emergent toxicity: CPK Grade 4 / Worst treatment-emergent toxicity: Cholesterol Grade 3 / Worst treatment-emergent toxicity: Hemoglobin - change from baseline Grade 3 / Worst treatment-emergent toxicity: Hyperkalemia Grade 3 / Worst treatment-emergent toxicity: Hyperkalemia Grade 4 / Worst treatment-emergent toxicity: Hypernatremia Grade 3 / Worst treatment-emergent toxicity: Hypernatremia Grade 4 / Worst treatment-emergent toxicity: Hypocalcemia Grade 4 / Worst treatment-emergent toxicity: Hypoglycemia Grade 3 / Worst treatment-emergent toxicity: Hypokalemia Grade 3 / Worst treatment-emergent toxicity: Hypokalemia Grade 4 / Worst treatment-emergent toxicity: Hypomagnesemia Grade 3 / Worst treatment-emergent toxicity: Hyponatremia Grade 3 / Worst treatment-emergent toxicity: Hypophosphatemia Grade 3 / Worst treatment-emergent toxicity: Neutrophils decrease Grade 3 / Worst treatment-emergent toxicity: Neutrophils decrease Grade 4 / Worst treatment-emergent toxicity: Urine RBC increased Grade 3 / Worst treatment-emergent toxicity: Urine WBC increased Grade 3 / Worst treatment-emergent toxicity: Urine glucose increased Grade 3 / Worst treatment-emergent toxicity: Urine protein increased Grade 3: OST placebo; for Worst treatment-emergent toxicity: ALT increase by factor Grade 3 / Worst treatment-emergent toxicity: ALT increase by factor Grade 4 / Worst treatment-emergent toxicity: AST increase by factor Grade 4 / Worst treatment-emergent toxicity: CPK Grade 3 / Worst treatment-emergent toxicity: CPK Grade 4 / Worst treatment-emergent toxicity: Cholesterol Grade 3 / Worst treatment-emergent toxicity: Hemoglobin - change from baseline Grade 3 / Worst treatment-emergent toxicity: Hyperkalemia Grade 3 / Worst treatment-emergent toxicity: Hyperkalemia Grade 4 / Worst treatment-emergent toxicity: Hypernatremia Grade 3 / Worst treatment-emergent toxicity: Hypernatremia Grade 4 / Worst treatment-emergent toxicity: Hypocalcemia Grade 4 / Worst treatment-emergent toxicity: Hypoglycemia Grade 3 / Worst treatment-emergent toxicity: Hypokalemia Grade 3 / Worst treatment-emergent toxicity: Hypokalemia Grade 4 / Worst treatment-emergent toxicity: Hypomagnesemia Grade 3 / Worst treatment-emergent toxicity: Hyponatremia Grade 3 / Worst treatment-emergent toxicity: Hypophosphatemia Grade 3 / Worst treatment-emergent toxicity: Neutrophils decrease Grade 3 / Worst treatment-emergent toxicity: Neutrophils decrease Grade 4 / Worst treatment-emergent toxicity: Urine RBC increased Grade 3 / Worst treatment-emergent toxicity: Urine WBC increased Grade 3 / Worst treatment-emergent toxicity: Urine glucose increased Grade 3 / Worst treatment-emergent toxicity: Urine protein increased Grade 3: Safety Set 74

## O=C(O)[C@H]1C2CCC(CC2)[C@@H]1Nc1nc(-c2c[nH]c3ncc(F)cc23)ncc1F [Compound (1), Pimodivir]
Influenza A; Cmpd (1) 300 mg + OST placebo
  Acceleration Factor, time to Influenza A negativity (TCID50), treatment versus placebo: 0.71
Influenza A; Cmpd (1) 600 mg + OST placebo
  Acceleration Factor, time to Influenza A negativity (TCID50), treatment versus placebo: 0.72
Influenza A; Compound (1) 300 mg bid
  reduction in time to negative viral load (viral culture) versus placebo: 29%
Influenza A; Compound (1) 600 mg bid
  reduction in time to negative viral load (viral culture) versus placebo: 28%
[1]; 300 mg, N 73
  Worst treatment-emergent toxicity: Glucose hyperglycemia Grade 3: 1 (1.4%)
[1]; 300 mg
  Worst treatment-emergent toxicity: ALT increase by factor Grade 3: 0
  Worst treatment-emergent toxicity: ALT increase by factor Grade 4: 0
  Worst treatment-emergent toxicity: AST increase by factor Grade 4: 0
  Worst treatment-emergent toxicity: CPK Grade 3: 1 (1.4%)
  Worst treatment-emergent toxicity: CPK Grade 4: 0
  Worst treatment-emergent toxicity: Cholesterol Grade 3: 0
  Worst treatment-emergent toxicity: Hemoglobin - change from baseline Grade 3: 5 (7.1%)
  Worst treatment-emergent toxicity: Hyperkalemia Grade 3: 1 (1.4%)
  Worst treatment-emergent toxicity: Hyperkalemia Grade 4: 0
  Worst treatment-emergent toxicity: Hypernatremia Grade 3: 0
  Worst treatment-emergent toxicity: Hypernatremia Grade 4: 0
  Worst treatment-emergent toxicity: Hypocalcemia Grade 4: 1 (1.4%)
  Worst treatment-emergent toxicity: Hypoglycemia Grade 3: 0
  Worst treatment-emergent toxicity: Hypokalemia Grade 3: 0
  Worst treatment-emergent toxicity: Hypokalemia Grade 4: 0
  Worst treatment-emergent toxicity: Hypomagnesemia Grade 3: 1 (1.4%)
  Worst treatment-emergent toxicity: Hyponatremia Grade 3: 0
  Worst treatment-emergent toxicity: Hypophosphatemia Grade 3: 2 (2.7%)
  Worst treatment-emergent toxicity: Neutrophils decrease Grade 3: 1 (1.4%)
  Worst treatment-emergent toxicity: Neutrophils decrease Grade 4: 0
  Worst treatment-emergent toxicity: Urine RBC increased Grade 3: 3 (9.4%)
  Worst treatment-emergent toxicity: Urine WBC increased Grade 3: 0
  Worst treatment-emergent toxicity: Urine glucose increased Grade 3: 1 (1.4%)
  Worst treatment-emergent toxicity: Urine protein increased Grade 3: 0
[1]; 600 mg, N 70
  Worst treatment-emergent toxicity: Glucose hyperglycemia Grade 3: 0
[1]; 600 mg
  Worst treatment-emergent toxicity: ALT increase by factor Grade 3: 1
  Worst treatment-emergent toxicity: ALT increase by factor Grade 4: 1
  Worst treatment-emergent toxicity: AST increase by factor Grade 4: 1
  Worst treatment-emergent toxicity: CPK Grade 3: 2
  Worst treatment-emergent toxicity: CPK Grade 4: 1
  Worst treatment-emergent toxicity: Cholesterol Grade 3: 4
  Worst treatment-emergent toxicity: Hemoglobin - change from baseline Grade 3: 3
  Worst treatment-emergent toxicity: Hyperkalemia Grade 3: 1
  Worst treatment-emergent toxicity: Hyperkalemia Grade 4: 2
  Worst treatment-emergent toxicity: Hypernatremia Grade 3: 0
  Worst treatment-emergent toxicity: Hypernatremia Grade 4: 0
  Worst treatment-emergent toxicity: Hypocalcemia Grade 4: 0
  Worst treatment-emergent toxicity: Hypoglycemia Grade 3: 2
  Worst treatment-emergent toxicity: Hypokalemia Grade 3: 1
  Worst treatment-emergent toxicity: Hypokalemia Grade 4: 1
  Worst treatment-emergent toxicity: Hypomagnesemia Grade 3: 0
  Worst treatment-emergent toxicity: Hyponatremia Grade 3: 0
  Worst treatment-emergent toxicity: Hypophosphatemia Grade 3: 0
  Worst treatment-emergent toxicity: Neutrophils decrease Grade 3: 4
  Worst treatment-emergent toxicity: Neutrophils decrease Grade 4: 0
  Worst treatment-emergent toxicity: Urine RBC increased Grade 3: 5
  Worst treatment-emergent toxicity: Urine WBC increased Grade 3: 2
  Worst treatment-emergent toxicity: Urine glucose increased Grade 3: 0
  Worst treatment-emergent toxicity: Urine protein increased Grade 3: 2
[1]; clinical study
  laboratory values, electrocardiograms, and vital signs: No safety concerns were noted
